Reference: patent US20260262643A1, “HERBICIDAL BENZOXAZINES” (FMC CORPORATION, priority 2022, published 2026)

Assays:
soybean [1] = assay: Test C preemergence; format: in vivo, Glycine max; details: 0 to 100 scale (0 no effect, 100 complete control); for Plant response rating, Soybean: Preemergence, 500 g ai/ha, visual rating after 10 days; for Soybean plant response rating: Test C, preemergence, 125 g ai/ha
In short: (§1)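 Visual injury score, 0–100 (100 = complete control), taken 10 days after treatment relative to untreated controls. Pre: directed spray onto soil over sown seeds. Post: foliar spray at one- to two-leaf stage, 2–10 cm. Solvent/surfactant formulation; loam–sand soil; greenhouse.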

barnyardgrass [2] = assay: Test C preemergence; format: in vivo, Echinochloa crusgalli; details: 0 to 100 scale (0 no effect, 100 complete control); for Plant response rating, Barnyardgrass: Preemergence, 500 g ai/ha, visual rating after 10 days; for Barnyardgrass plant response rating: Test C, preemergence, 125 g ai/ha
In short: as §1

soybean [3] = assay: Test C postemergence; format: in vivo, Glycine max; details: 10 days
In short: as §1

pigweed, palmer [4] = assay: Test C preemergence; format: in vivo, Amaranthus palmeri; details: 0 to 100 scale (0 no effect, 100 complete control); for Plant response rating, Pigweed, Palmer: Preemergence, 500 g ai/ha, visual rating after 10 days; for Pigweed, Palmer plant response rating: Test C, preemergence, 125 g ai/ha
In short: as §1

corn [5] = assay: Test C postemergence; format: in vivo, Zea mays; details: 10 days
In short: as §1

kochia [6] = assay: Test C postemergence; format: in vivo, Bassia scoparia; details: 10 days
In short: as §1

barnyardgrass [7] = assay: Test C postemergence; format: in vivo, Echinochloa crusgalli; details: 10 days
In short: as §1

wheat [8] = assay: Test C preemergence; format: in vivo, Triticum aestivum; details: 0 to 100 scale (0 no effect, 100 complete control); for Plant response rating, Wheat: Preemergence, 500 g ai/ha, visual rating after 10 days; for Wheat plant response rating: Test C, preemergence, 125 g ai/ha
In short: as §1

barnyardgrass [9] = assay: Test D flooded paddy test; format: in vivo, Echinochloa crus-galli; details: 250 g ai/ha, applied to paddy water, visual rating after 13 to 14 days, scale 0 to 100 (0 no effect, 100 complete control)
In short: (§2)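 Post-flood water application at the 2-leaf stage; 3 cm flood depth kept constant; visual control rating 0–100 after 13–14 days greenhouse growth.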

ragweed [10] = assay: Test C postemergence; format: in vivo, Ambrosia artemisiifolia; details: 10 days
In short: as §1

ducksalad = assay: Test D flooded paddy test; format: in vivo, Heteranthera limosa; details: 250 g ai/ha, applied to paddy water, visual rating after 13 to 14 days, scale 0 to 100 (0 no effect, 100 complete control)
In short: as §2

oat, wild [11] = assay: Test C postemergence; format: in vivo, Avena fatua; details: 10 days
In short: as §1

oat, wild [12] = assay: Test C preemergence; format: in vivo, Avena fatua; details: 0 to 100 scale (0 no effect, 100 complete control); for Plant response rating, Oat, Wild: Preemergence, 500 g ai/ha, visual rating after 10 days
In short: as §1

blackgrass [13] = assay: Test C postemergence; format: in vivo, Alopecurus myosuroides; details: 10 days
In short: as §1

horseweed = assay: Test C postemergence; format: in vivo, Erigeron canadensis; details: 10 days
In short: as §1

rice = assay: Test D flooded paddy test; format: in vivo, Oryza sativa; details: 250 g ai/ha, applied to paddy water, visual rating after 13 to 14 days, scale 0 to 100 (0 no effect, 100 complete control)
In short: as §2

kochia [14] = assay: Test C preemergence; format: in vivo, Bassia scoparia; details: 0 to 100 scale (0 no effect, 100 complete control); for Plant response rating, Kochia: Preemergence, 500 g ai/ha, visual rating after 10 days; for Kochia plant response rating: Test C, preemergence, 125 g ai/ha
In short: as §1

corn [15] = assay: Test C preemergence; format: in vivo, Zea mays; details: 0 to 100 scale (0 no effect, 100 complete control); for Plant response rating, Corn: Preemergence, 500 g ai/ha, visual rating after 10 days; for Corn plant response rating: Test C, preemergence, 125 g ai/ha
In short: as §1

wheat [16] = assay: Test C postemergence; format: in vivo, Triticum aestivum; details: 10 days
In short: as §1

green foxtail [17] = assay: Test C postemergence; format: in vivo, Setaria viridis; details: 10 days
In short: as §1

ryegrass, Italian [18] = assay: Test C preemergence; format: in vivo, Lolium multiflorum; details: 0 to 100 scale (0 no effect, 100 complete control); for Plant response rating, Ryegrass, Italian: Preemergence, 500 g ai/ha, visual rating after 10 days; for Ryegrass, Italian plant response rating: Test C, preemergence, 125 g ai/ha
In short: as §1

ragweed [19] = assay: Test C preemergence; format: in vivo, Ambrosia artemisiifolia; details: 0 to 100 scale (0 no effect, 100 complete control); for Plant response rating, Ragweed: Preemergence, 500 g ai/ha, visual rating after 10 days; for Ragweed plant response rating: Test C, preemergence, 125 g ai/ha
In short: as §1

ryegrass, Italian [20] = assay: Test C postemergence; format: in vivo, Lolium multiflorum; details: 10 days
In short: as §1

blackgrass [21] = assay: Test C preemergence; format: in vivo, Alopecurus myosuroides; details: 0 to 100 scale (0 no effect, 100 complete control); for Plant response rating, Blackgrass: Preemergence, 500 g ai/ha, visual rating after 10 days; for Blackgrass plant response rating: Test C, preemergence, 125 g ai/ha
In short: as §1

sedge, umbrella = assay: Test D flooded paddy test; format: in vivo, Cyperus difformis; details: 250 g ai/ha, applied to paddy water, visual rating after 13 to 14 days, scale 0 to 100 (0 no effect, 100 complete control)
In short: as §2

pigweed, palmer [22] = assay: Test C postemergence; format: in vivo, Amaranthus palmeri; details: 10 days
In short: as §1

green foxtail [23] = assay: Test C preemergence; format: in vivo, Setaria viridis; details: 0 to 100 scale (0 no effect, 100 complete control); for Plant response rating, Foxtail, Green: Preemergence, 500 g ai/ha, visual rating after 10 days; for Foxtail, Green plant response rating: Test C, preemergence, 125 g ai/ha
In short: as §1

[24] = 125 g ai/ha, postemergence, 0 to 100 scale, 0 no effect, 100 complete control
[25] = Postemergence, 500 g ai/ha, visual 0 to 100 scale (0 no effect, 100 complete control)

C[C@H]1CN(C(=O)c2cccc(-c3ncccn3)c2)c2cccc(Cl)c2O1 [Compound 203]
60: Plant response rating, Foxtail, Green (green foxtail [23])
20: Pigweed, Palmer plant response rating (pigweed, palmer [4]) | Plant response rating, Ragweed (ragweed [10]; [25]) | Plant response rating, Ryegrass, Italian (ryegrass, Italian [18]) | Foxtail, Green plant response rating (green foxtail [23])
40: Plant response rating, Kochia (kochia [6]; [25]) | Plant response rating, Pigweed, Palmer (pigweed, palmer [22]; [25])
10: Plant response rating, Corn (corn [5]; [25]) | Plant response rating, Oat, Wild (oat, wild [11]; [25]) | Plant response rating, Wheat (wheat [16]; [25]) | Plant response rating, Foxtail, Green (green foxtail [17]; [25])
100: Plant response rating, Soybean (soybean [3]; [24]) | Plant response rating, Soybean (soybean [3]; [25])
70: Plant response rating, Pigweed, Palmer (pigweed, palmer [4])
30: Plant response rating, Kochia (kochia [14])
0: Plant response rating, Soybean (soybean [1]) | Soybean plant response rating (soybean [1]) | Plant response rating, Barnyardgrass (barnyardgrass [2]) | Barnyardgrass plant response rating (barnyardgrass [2]) | Plant response rating, Corn (corn [5]; [24]) | Plant response rating, Kochia (kochia [6]; [24]) | Plant response rating, Barnyardgrass (barnyardgrass [7]; [24]) | Plant response rating, Barnyardgrass (barnyardgrass [7]; [25]) | Plant response rating, Wheat (wheat [8]) | Wheat plant response rating (wheat [8]) | Plant response rating, Barnyardgrass (Flood) (barnyardgrass [9]) | Plant response rating, Ragweed (ragweed [10]; [24]) | Plant response rating, Ducksalad (Flood) (ducksalad) | Plant response rating, Oat, Wild (oat, wild [11]; [24]) | Plant response rating, Oat, Wild (oat, wild [12]) | Plant response rating, Blackgrass (blackgrass [13]; [24]) | Plant response rating, Blackgrass (blackgrass [13]; [25]) | Plant response rating, Horseweed (horseweed; [24]) | Plant response rating, Horseweed (horseweed; [25]) | Plant response rating, Rice (Flood) (rice) | Kochia plant response rating (kochia [14]) | Plant response rating, Corn (corn [15]) | Corn plant response rating (corn [15]) | Plant response rating, Wheat (wheat [16]; [24]) | Plant response rating, Foxtail, Green (green foxtail [17]; [24]) | Ryegrass, Italian plant response rating (ryegrass, Italian [18]) | Plant response rating, Ragweed (ragweed [19]) | Ragweed plant response rating (ragweed [19]) | Plant response rating, Ryegrass, Italian (ryegrass, Italian [20]; [24]) | Plant response rating, Ryegrass, Italian (ryegrass, Italian [20]; [25]) | Plant response rating, Blackgrass (blackgrass [21]) | Blackgrass plant response rating (blackgrass [21]) | Plant response rating, Sedge, Umbrella (Flood) (sedge, umbrella) | Plant response rating, Pigweed, Palmer (pigweed, palmer [22]; [24])

Cc1ccc(-n2cnc(CS(C)(=O)=O)n2)cc1C(=O)N1C[C@H](C)Oc2c(Cl)cccc21 [Compound 225]
90: Plant response rating, Soybean (soybean [1]) | Plant response rating, Corn (corn [5]; [25]) | Plant response rating, Kochia (kochia [6]; [25]) | Plant response rating, Ragweed (ragweed [10]; [24]) | Plant response rating, Ragweed (ragweed [10]; [25]) | Plant response rating, Oat, Wild (oat, wild [12]) | Plant response rating, Blackgrass (blackgrass [13]; [25]) | Plant response rating, Corn (corn [15]) | Plant response rating, Wheat (wheat [16]; [25]) | Plant response rating, Foxtail, Green (green foxtail [17]; [25]) | Plant response rating, Ragweed (ragweed [19]) | Plant response rating, Ryegrass, Italian (ryegrass, Italian [20]; [25]) | Plant response rating, Pigweed, Palmer (pigweed, palmer [22]; [24])
25: Plant response rating, Barnyardgrass (Flood) (barnyardgrass [9])
60: Plant response rating, Oat, Wild (oat, wild [11]; [24]) | Oat, Wild plant response rating (oat, wild [12]; Test C, preemergence, 125 g ai/ha) | Ryegrass, Italian plant response rating (ryegrass, Italian [18]) | Blackgrass plant response rating (blackgrass [21])
20: Plant response rating, Barnyardgrass (barnyardgrass [7]; [24]) | Wheat plant response rating (wheat [8]) | Plant response rating, Horseweed (horseweed; [24]) | Kochia plant response rating (kochia [14]) | Corn plant response rating (corn [15]) | Plant response rating, Foxtail, Green (green foxtail [17]; [24])
50: Barnyardgrass plant response rating (barnyardgrass [2]) | Plant response rating, Blackgrass (blackgrass [13]; [24])
15: Plant response rating, Rice (Flood) (rice)
70: Plant response rating, Barnyardgrass (barnyardgrass [7]; [25]) | Plant response rating, Oat, Wild (oat, wild [11]; [25]) | Ragweed plant response rating (ragweed [19]) | Plant response rating, Ryegrass, Italian (ryegrass, Italian [20]; [24])
80: Soybean plant response rating (soybean [1]) | Plant response rating, Corn (corn [5]; [24]) | Plant response rating, Kochia (kochia [6]; [24]) | Plant response rating, Wheat (wheat [8]) | Plant response rating, Horseweed (horseweed; [25]) | Plant response rating, Ryegrass, Italian (ryegrass, Italian [18]) | Plant response rating, Blackgrass (blackgrass [21])
100: Plant response rating, Barnyardgrass (barnyardgrass [2]) | Plant response rating, Soybean (soybean [3]; [24]) | Plant response rating, Soybean (soybean [3]; [25]) | Plant response rating, Pigweed, Palmer (pigweed, palmer [4]) | Pigweed, Palmer plant response rating (pigweed, palmer [4]) | Plant response rating, Ducksalad (Flood) (ducksalad) | Plant response rating, Kochia (kochia [14]) | Plant response rating, Sedge, Umbrella (Flood) (sedge, umbrella) | Plant response rating, Pigweed, Palmer (pigweed, palmer [22]; [25]) | Plant response rating, Foxtail, Green (green foxtail [23]) | Foxtail, Green plant response rating (green foxtail [23])
30: Plant response rating, Wheat (wheat [16]; [24])
